Data: US20240238251A9, “A Composition Comprising Heterocyclic Compounds, Preparation Method and Application Thereof” (SHANGHAI YASHENG PHARMACEUTICAL TECHNOLOGY CO., LTD., priority 2020, published 2024)

Assay: Pharmacokinetics after oral administration in dogs
Type: in vivo, beagle dogs
Method: After fully grinding and mixing the samples with PEG400 (the concentration in the sample solution was 5%), a small amount (about 2 ml) of 0.2% HPMC aqueous solution was added to grind into a uniform paste until there were no large particles. Under the condition of continuous grinding, 0.2% HPMC aqueous solution was added to a sufficient amount and maintained stirring (800 RPM) for 5 minutes. After sealing the sample solution container with sealing film, it was placed in the ultrasonic instrument (40 kHz) for ultrasonic for 20 minutes (to avoid the rise of ultrasonic medium water temperature during ultrasonic process, the water temperature was controlled within 40° C.); Stopped the ultrasound, mixed the suspension evenly before use (stirring for about 3 minutes), and then sampled immediately (the concentration of the sample was 6 mg/ml).
Test method: three male beagle dogs were selected and divided into test article 1 (APG-115 particles) group and test article 2 (APG-115 hydrate) group. Each group received single oral capsule administration: after the administration of test article 1, after an 8-day cleaning period, the group name was changed to test article 2, and so on.
Blood samples were collected and plasma was separated at 0.5, 1.0, 2.0, 4.0, 6.0, 10, 24, 48, 72, 96, 120, 144 and 168 hours before and after each round of administration. All plasma samples were mailed to the client for testing. The concentration of APG-115 in dog plasma was analyzed by LC-MS/Ms. The lower limit of quantification of the method was 50 ng/ml. The non compartmental model method (NCA) of the metabolic kinetic data analysis software winnonlin 8.0.0.3176 was used to analyze the plasma concentration data and calculate the pharmacokinetic parameters. See table 21 to evaluate the kinetic characteristics of APG-115 in animals after administration.

[1] = dog, plasma, male beagle dogs, single oral administration, Mean
[2] = male beagle dogs, single oral administration, Mean

**Q.** Which AUC(0-inf) [1] does the source give for `CCN1[C@@H](C(=O)NC23CCC(C(=O)O)(CC2)CC3)[C@H](c2cccc(Cl)c2F)[C@]2(C(=O)Nc3cc(Cl)ccc32)C12CCCCC2` [APG-115 hydrate] here?
**A.** The AUC(0-inf) was 33400 ng·h/mL.

**Q.** What about the AUC(0-t) [1] of the same compound?
**A.** The AUC(0-t) was 4580 ng·h/mL.

**Q.** And the Cmax [1]?
**A.** Its Cmax is 136 ng/mL.

**Q.** And the MRT [1]?
**A.** Its MRT is 31.4 h.

**Q.** What about the Tmax [1] of the same compound?
**A.** Its Tmax is 6 h.

**Q.** What about the half-life [1] of the same compound?
**A.** Its half-life is 346 h.

**Q.** And the exposure in dogs (dogs, oral, in words)?
**A.** The exposure in dogs was “very low”.

**Q.** And the CL [2]?
**A.** Its CL is 1.013 mL/min/kg.

**Q.** What about the Vd [2] of the same compound?
**A.** Its Vd is 29.08877 L/kg.
